PMC5505994 (Scientific Reports, 2017)

Target: T1, MbAhpC (Mycobacterium tuberculosis, UniProt P9WQB7)
T1 construct: gene ahpC
Settings: read-out: K m ± SD

T1 sequence (P9WQB7 whole entry): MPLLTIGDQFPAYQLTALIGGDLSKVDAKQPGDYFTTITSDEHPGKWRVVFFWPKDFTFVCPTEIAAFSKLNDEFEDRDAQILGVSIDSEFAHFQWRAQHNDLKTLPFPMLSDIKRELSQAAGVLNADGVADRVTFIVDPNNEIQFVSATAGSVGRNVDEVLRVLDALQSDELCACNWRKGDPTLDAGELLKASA

## CC(C)(C)OO [tert-butyl hydroperoxide]
  Km: 2.23 ± 0.49 µM
